# Reference: PubChem BioAssay (NCI)
#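 Step 1: Grow cells in 96-well plates. Step 2: Expose to compound for 48 hours at 5 concentrations. Step 3: Interpolate endpoints linearly; if unreached, use highest concentration. GI50 is the concentration that inhibits growth by half. Definition used: TGI = concentration required for complete inhibition of growth.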
# Assays:
# Assay in all cases: NCI tumour cell line growth inhibition, 48 h
# U251 CNS = system: U251 CNS
# SNB-19 CNS = system: SNB-19 CNS
# SK-MEL-2 melanoma = system: SK-MEL-2 melanoma
# LOX IMVI melanoma = system: LOX IMVI melanoma
# MOLT-4 leukemia = system: MOLT-4 leukemia
# IGROV1 ovarian = system: IGROV1 ovarian
# DU-145 prostate = system: DU-145 prostate
# 786-0 renal = system: 786-0 renal
# NCI/ADR-RES ovarian = system: NCI/ADR-RES ovarian
# OVCAR-5 ovarian = system: OVCAR-5 ovarian
# SNB-75 CNS = system: SNB-75 CNS
# M14 melanoma = system: M14 melanoma
# MDA-MB-435 = system: MDA-MB-435
# RXF 393 renal = system: RXF 393 renal
# RPMI-8226 leukemia = system: RPMI-8226 leukemia
# SW-620 colon = system: SW-620 colon
# COLO 205 colon = system: COLO 205 colon
# KM12 colon = system: KM12 colon
# MDA-MB-231 breast = system: MDA-MB-231 breast
# NCI-H460 lung = system: NCI-H460 lung
# NCI-H522 lung = system: NCI-H522 lung
# SK-OV-3 ovarian = system: SK-OV-3 ovarian
# NCI-H23 lung = system: NCI-H23 lung
# PC-3 prostate = system: PC-3 prostate
# SR leukemia = system: SR leukemia
# CCRF-CEM leukemia = system: CCRF-CEM leukemia
# SF-268 CNS = system: SF-268 CNS
# SF-295 CNS = system: SF-295 CNS
# MCF7 breast = system: MCF7 breast
# ACHN renal = system: ACHN renal
# UO-31 renal = system: UO-31 renal
# SK-MEL-28 melanoma = system: SK-MEL-28 melanoma
# HS 578T breast = system: HS 578T breast
# HCT-116 colon = system: HCT-116 colon
# HT29 colon = system: HT29 colon
# UACC-62 melanoma = system: UACC-62 melanoma
# HCT-15 colon = system: HCT-15 colon
# SF-539 CNS = system: SF-539 CNS
# NCI-H226 lung = system: NCI-H226 lung
# A549 NSCLC = system: A549 NSCLC
# K-562 leukemia = system: K-562 leukemia
# UACC-257 melanoma = system: UACC-257 melanoma
# CAKI-1 renal = system: CAKI-1 renal
# T-47D breast = system: T-47D breast
# A498 renal = system: A498 renal
# MALME-3M melanoma = system: MALME-3M melanoma
# OVCAR-4 ovarian = system: OVCAR-4 ovarian
# BT-549 breast = system: BT-549 breast
# HOP-92 NSCLC = system: HOP-92 NSCLC
# HCC-2998 colon = system: HCC-2998 colon
# TK-10 renal = system: TK-10 renal
# HOP-62 NSCLC = system: HOP-62 NSCLC
# HL-60(TB) leukemia = system: HL-60(TB) leukemia
# SN12C renal = system: SN12C renal
# OVCAR-8 ovarian = system: OVCAR-8 ovarian
# SK-MEL-5 melanoma = system: SK-MEL-5 melanoma
# EKVX NSCLC = system: EKVX NSCLC
smiles,measurement,setting,value
Oc1ccc(CSc2nnc(-c3ccc(Cl)cc3)n2-c2ccccc2)c2cccnc12,GI50,U251 CNS,327 nM
same,TGI,U251 CNS,> 22.1 µM
same,GI50,SNB-19 CNS,434 nM
same,TGI,SNB-19 CNS,> 100 µM
same,GI50,SK-MEL-2 melanoma,1340 nM
same,TGI,SK-MEL-2 melanoma,> 72.1 µM
same,GI50,LOX IMVI melanoma,425 nM
same,TGI,LOX IMVI melanoma,> 100 µM
same,GI50,MOLT-4 leukemia,592 nM
same,TGI,MOLT-4 leukemia,> 100 µM
same,GI50,IGROV1 ovarian,954 nM
same,TGI,IGROV1 ovarian,> 100 µM
same,GI50,DU-145 prostate,762 nM
same,TGI,DU-145 prostate,> 100 µM
same,GI50,786-0 renal,1170 nM
same,TGI,786-0 renal,> 100 µM
same,GI50,NCI/ADR-RES ovarian,211 nM
same,TGI,NCI/ADR-RES ovarian,> 100 µM
same,GI50,OVCAR-5 ovarian,5.73 µM
same,TGI,OVCAR-5 ovarian,> 100 µM
same,GI50,SNB-75 CNS,802 nM
same,TGI,SNB-75 CNS,> 100 µM
same,GI50,M14 melanoma,510 nM
same,TGI,M14 melanoma,> 100 µM
same,GI50,MDA-MB-435,517 nM
same,TGI,MDA-MB-435,> 100 µM
same,GI50,RXF 393 renal,1790 nM
same,TGI,RXF 393 renal,> 100 µM
same,GI50,RPMI-8226 leukemia,456 nM
same,TGI,RPMI-8226 leukemia,> 100 µM
same,GI50,SW-620 colon,436 nM
same,TGI,SW-620 colon,> 100 µM
same,GI50,COLO 205 colon,> 100 µM
same,TGI,COLO 205 colon,> 100 µM
same,GI50,KM12 colon,877 nM
same,TGI,KM12 colon,> 100 µM
same,GI50,MDA-MB-231 breast,5.84 µM
same,TGI,MDA-MB-231 breast,> 100 µM
same,GI50,NCI-H460 lung,368 nM
same,TGI,NCI-H460 lung,> 100 µM
same,GI50,NCI-H522 lung,1910 nM
same,TGI,NCI-H522 lung,> 100 µM
same,GI50,SK-OV-3 ovarian,2340 nM
same,TGI,SK-OV-3 ovarian,> 100 µM
same,GI50,NCI-H23 lung,697 nM
same,TGI,NCI-H23 lung,> 100 µM
same,GI50,PC-3 prostate,636 nM
same,TGI,PC-3 prostate,> 100 µM
same,GI50,SR leukemia,264 nM
same,TGI,SR leukemia,> 100 µM
same,GI50,CCRF-CEM leukemia,488 nM
same,TGI,CCRF-CEM leukemia,> 100 µM
same,GI50,SF-268 CNS,633 nM
same,TGI,SF-268 CNS,> 100 µM
same,GI50,SF-295 CNS,732 nM
same,TGI,SF-295 CNS,> 100 µM
same,GI50,MCF7 breast,410 nM
same,TGI,MCF7 breast,> 100 µM
same,GI50,ACHN renal,532 nM
same,TGI,ACHN renal,> 100 µM
same,GI50,UO-31 renal,273 nM
same,TGI,UO-31 renal,> 100 µM
same,GI50,SK-MEL-28 melanoma,1150 nM
same,TGI,SK-MEL-28 melanoma,> 100 µM
same,GI50,HS 578T breast,364 nM
same,TGI,HS 578T breast,> 23.6 µM
same,GI50,HCT-116 colon,375 nM
same,TGI,HCT-116 colon,> 100 µM
same,GI50,HT29 colon,> 100 µM
same,TGI,HT29 colon,> 100 µM
same,GI50,UACC-62 melanoma,1490 nM
same,TGI,UACC-62 melanoma,> 100 µM
same,GI50,HCT-15 colon,162 nM
same,TGI,HCT-15 colon,> 100 µM
same,GI50,SF-539 CNS,444 nM
same,TGI,SF-539 CNS,> 100 µM
same,GI50,NCI-H226 lung,4.98 µM
same,TGI,NCI-H226 lung,> 100 µM
same,GI50,A549 NSCLC,2070 nM
same,TGI,A549 NSCLC,> 100 µM
same,GI50,K-562 leukemia,357 nM
same,TGI,K-562 leukemia,> 100 µM
same,GI50,UACC-257 melanoma,2980 nM
same,TGI,UACC-257 melanoma,> 100 µM
same,GI50,CAKI-1 renal,1270 nM
same,TGI,CAKI-1 renal,> 100 µM
same,GI50,T-47D breast,1920 nM
same,TGI,T-47D breast,> 100 µM
same,GI50,A498 renal,3.89 µM
same,TGI,A498 renal,> 100 µM
same,GI50,MALME-3M melanoma,2390 nM
same,TGI,MALME-3M melanoma,> 100 µM
same,GI50,OVCAR-4 ovarian,2070 nM
same,TGI,OVCAR-4 ovarian,> 100 µM
same,GI50,BT-549 breast,731 nM
same,TGI,BT-549 breast,> 100 µM
same,GI50,HOP-92 NSCLC,351 nM
same,TGI,HOP-92 NSCLC,6.34 µM
same,GI50,HCC-2998 colon,733 nM
same,TGI,HCC-2998 colon,> 100 µM
same,GI50,TK-10 renal,756 nM
same,TGI,TK-10 renal,> 100 µM
same,GI50,HOP-62 NSCLC,544 nM
same,TGI,HOP-62 NSCLC,> 100 µM
same,GI50,HL-60(TB) leukemia,584 nM
same,TGI,HL-60(TB) leukemia,> 100 µM
same,GI50,SN12C renal,908 nM
same,TGI,SN12C renal,> 100 µM
same,GI50,OVCAR-8 ovarian,516 nM
same,TGI,OVCAR-8 ovarian,> 100 µM
same,GI50,SK-MEL-5 melanoma,2220 nM
same,TGI,SK-MEL-5 melanoma,> 100 µM
same,GI50,EKVX NSCLC,1380 nM
same,TGI,EKVX NSCLC,> 100 µM
